Each block holds one compound with its values, some of them ahead of it. Peptide text beside a SMILES is read from it. * marks the point of attachment. C18 diacid = O=C(O)CCCCCCCCCCCCCCCCC(=O)*
Legend:
[1] = target: T1, Amylin receptor AMY3; CALCR/RAMP3 (Homo sapiens, UniProt O60896+P30988); experiment: Displacement of [125I]-labeled rat amylin from human amylin receptor expressed in BHK tkts13 whole cells co-expressing RAMP3 incubated for 60 mins by scintillation proximity assay; format: cell-based
T1 sequence (P30988 whole entry): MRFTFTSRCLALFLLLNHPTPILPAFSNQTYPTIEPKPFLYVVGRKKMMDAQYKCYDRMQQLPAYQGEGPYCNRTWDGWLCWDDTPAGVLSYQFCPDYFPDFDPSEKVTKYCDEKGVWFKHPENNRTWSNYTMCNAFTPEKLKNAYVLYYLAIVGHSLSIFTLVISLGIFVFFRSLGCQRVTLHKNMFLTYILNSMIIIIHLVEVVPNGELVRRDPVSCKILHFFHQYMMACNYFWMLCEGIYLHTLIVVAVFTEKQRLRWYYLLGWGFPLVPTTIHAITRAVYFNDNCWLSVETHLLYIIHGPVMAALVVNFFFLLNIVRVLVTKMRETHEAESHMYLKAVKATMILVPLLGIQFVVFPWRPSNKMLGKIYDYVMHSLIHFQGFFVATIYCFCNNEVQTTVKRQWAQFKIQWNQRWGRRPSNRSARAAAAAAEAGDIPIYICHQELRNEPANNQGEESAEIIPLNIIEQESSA
T1 sequence (O60896 whole entry): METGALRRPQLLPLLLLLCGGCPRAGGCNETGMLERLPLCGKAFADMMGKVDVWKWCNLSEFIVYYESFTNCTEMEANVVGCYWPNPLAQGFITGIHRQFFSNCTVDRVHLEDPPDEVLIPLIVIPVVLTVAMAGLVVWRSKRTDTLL

[2] = Solubility in 100 mM glycylglycine buffer at pH 5.0 incubated for 18 hrs by UPLC analysis; format: physicochemical
[3] = system: Rattus norvegicus; experiment: Reduction in food intake in Sprague-Dawley rat at 3 nmol/kg measured 0 to 24 hrs post dose relative to control; format: functional; design: scale not given: the % may be the effect or the level left
[4] = system: Rattus norvegicus; experiment: (§1) Reduction in body weight in Sprague-Dawley rat model of diet-induced obesity assessed as relative body weight at 3.7 ug/kg, sc dosed dosed once daily during 0 to 15 days and measured on day 15 relative to initial body weight (reference value: 98.8 +/- 0.8%); format: functional; design: scale not given: the % may be the effect or the level left
[5] = Solubility in 100 mM bistrispropane buffer at pH 7.5 incubated for 18 hrs by UPLC analysis; format: physicochemical
[6] = target: T1, Amylin receptor AMY3; CALCR/RAMP3; experiment: Agonist activity at human amylin receptor expressed in BHK570 cells co-expressing RAMP3 assessed as increase in intracellular cAMP concentration incubated for 3 hrs in absence of albumin by CRE luciferase reporter gene assay; format: functional, cell-based
[7] = Dose normalized AUC in LYD pig at 1.6 mM, sc co-formulated with 1.6 mM liraglutide by LC-MS analysis; format: ADME, organism-based, Sus scrofa; settings: in vivo, 1600 µM
[8] = Solubility in 100 mM bistrispropane buffer at pH 6.5 incubated for 18 hrs by UPLC analysis; format: physicochemical
[9] = Solubility in 100 mM bistrispropane buffer at pH 6.0 incubated for 18 hrs by UPLC analysis; format: physicochemical
[10] = system: Rattus norvegicus; experiment: as §1, with “daily and co-treated with 0.1 mg/kg, sc liraglutide” for “daily”, “28” for “15”; format: functional; design: scale not given: the % may be the effect or the level left
[11] = Half life in LYD pig at 1.6 mM, sc co-formulated with 1.6 mM liraglutide by LC-MS analysis; format: ADME, organism-based, Sus scrofa; settings: in vivo
[12] = Half life in LYD pig at 1.6 mM, sc co-dosed with 1.6 mM liraglutide by LC-MS analysis; format: ADME, organism-based, Sus scrofa; settings: in vivo
[13] = Solubility in 100 mM bistrispropane buffer at pH 7.0 incubated for 18 hrs by UPLC analysis; format: physicochemical
[14] = system: Rattus norvegicus; experiment: Reduction in food intake in Sprague-Dawley rat at 3 nmol/kg measured 24 to 48 hrs post dose relative to control; format: functional; design: scale not given: the % may be the effect or the level left
[15] = Solubility in 100 mM bistrispropane buffer at pH 8.0 incubated for 18 hrs by UPLC analysis; format: physicochemical
[16] = system: Rattus norvegicus; experiment: Reduction in body weight in Sprague-Dawley rat model of diet-induced obesity assessed as relative body weight at 3.7 ug/kg, sc dosed dosed once daily during 0 to 28 days and measured on day 28 relative to initial body weight (reference value: 99.8 +.- 1.1%); format: functional; design: scale not given: the % may be the effect or the level left
[17] = Solubility in 100 mM glycylglycine buffer at pH 3.0 incubated for 18 hrs by UPLC analysis; format: physicochemical
[18] = system: Rattus norvegicus; experiment: as §1, with “daily and co-treated with 0.1 mg/kg, sc liraglutide” for “daily”; format: functional; design: scale not given: the % may be the effect or the level left
[19] = target: T2, Calcitonin receptor (Homo sapiens, UniProt P30988); experiment: Agonist activity at human calcitonin receptor expressed in BHK570 cells assessed as increase in intracellular cAMP concentration incubated for 3 hrs in absence of albumin by CRE luciferase reporter gene assay; format: functional, cell-based
T2 sequence (P30988 whole entry): T1 sequence (P30988 whole entry)

[20] = Dose normalized AUC in LYD pig at 1.6 mM, sc co-dosed with 1.6 mM liraglutide by LC-MS analysis; format: ADME, organism-based, Sus scrofa; settings: in vivo, 1600 µM
[21] = Solubility in 100 mM glycylglycine buffer at pH 4.0 incubated for 18 hrs by UPLC analysis; format: physicochemical
[22] = system: Rattus norvegicus; experiment: Reduction in body weight in Sprague-Dawley rat model of diet-induced obesity assessed as relative body weight at 0.1 mg/kg, sc dosed dosed once daily during 0 to 28 days and measured on day 28 relative to initial body weight (reference value: 99.8 +.- 1.1%); format: functional; design: scale not given: the % may be the effect or the level left

IC50 [1]: 902 pM
solubility at 18 h [2]: ≥ 200 µM
solubility at 18 h [5]: ≥ 200 µM
EC50 [6]: 8 pM
AUC/dose [7]: 732 kg·h/L
solubility at 18 h [8]: ≥ 200 µM
solubility at 18 h [9]: ≥ 200 µM
half-life at 1600 µM [11]: 67 h
half-life at 1600 µM [12]: 67 h
solubility at 18 h [13]: ≥ 200 µM
solubility at 18 h [15]: ≥ 200 µM
solubility at 18 h [17]: ≥ 200 µM
EC50 [19]: 5 pM
AUC/dose [20]: 712 kg·h/L
solubility at 18 h [21]: ≥ 200 µM
Structure (SMILES): CC(C)C[C@H](NC(=O)[C@H](C)NC(=O)[C@H](C)NC(=O)[C@@H](NC(=O)[C@H](CO)NC(=O)[C@H](CC(C)C)NC(=O)[C@H](CCC(=O)O)NC(=O)[C@H](CO)NC(=O)[C@H](C)NC(=O)[C@H](CCC(=O)O)NC(=O)CCCCCCCCCCCCCCCCC(=O)O)[C@@H](C)O)C(=O)NCC(=O)N[C@@H](CCCNC(=N)N)C(=O)N[C@@H](CC(C)C)C(=O)N[C@@H](CO)C(=O)N[C@@H](C)C(=O)N[C@@H](CCC(=O)O)C(=O)N[C@@H](CC(C)C)C(=O)N[C@@H](Cc1cnc[nH]1)C(=O)N[C@@H](CCC(=O)O)C(=O)N[C@@H](CC(C)C)C(=O)N[C@@H](C)C(=O)N[C@H](C(=O)N[C@@H](CC(C)C)C(=O)N1CCC[C@H]1C(=O)N[C@@H](CCCNC(=N)N)C(=O)N[C@H](C(=O)N[C@@H](CCC(=O)O)C(=O)N[C@H](C(=O)NCC(=O)N1CCC[C@H]1C(=O)N[C@@H](CCC(=O)O)C(=O)N[C@@H](CO)C(=O)N1CCC[C@H]1C(N)=O)[C@@H](C)O)[C@@H](C)O)[C@@H](C)O ({C18 diacid}-EASELSTAALGRLSAELHELATLPRTETGPESP-NH2)
Activity [3]: 79%
Activity [4]: 90.6%
Activity [10]: 83.2%
Activity [14]: 60.67%
Activity [16]: 88.9%
Activity [18]: 93.4%

Structure (SMILES): CCCCCCCCCCCCCCCC(=O)N[C@@H](CCC(=O)NCCCC[C@H](NC(=O)[C@H](C)NC(=O)[C@H](C)NC(=O)[C@H](CCC(N)=O)NC(=O)CNC(=O)[C@H](CCC(=O)O)NC(=O)[C@H](CC(C)C)NC(=O)[C@H](Cc1ccc(O)cc1)NC(=O)[C@H](CO)NC(=O)[C@H](CO)NC(=O)[C@@H](NC(=O)[C@H](CC(=O)O)NC(=O)[C@H](CO)NC(=O)[C@@H](NC(=O)[C@H](Cc1ccccc1)NC(=O)[C@@H](NC(=O)CNC(=O)[C@H](CCC(=O)O)NC(=O)[C@H](C)NC(=O)[C@@H](N)Cc1cnc[nH]1)[C@@H](C)O)[C@@H](C)O)C(C)C)C(=O)N[C@@H](CCC(=O)O)C(=O)N[C@@H](Cc1ccccc1)C(=O)N[C@H](C(=O)N[C@@H](C)C(=O)N[C@@H](Cc1c[nH]c2ccccc12)C(=O)N[C@@H](CC(C)C)C(=O)N[C@H](C(=O)N[C@@H](CCCNC(=N)N)C(=O)NCC(=O)N[C@@H](CCCNC(=N)N)C(=O)NCC(=O)O)C(C)C)[C@@H](C)CC)C(=O)O [LIRAGLUTIDE]
Activity [22]: 93.9%

From ChEMBL document CHEMBL4420076, “Amylin and calcitonin receptor agonist” (2017)
